pIC50: −log10 of the molar value.
Experiments:
[1] = biological target: T1, NAD-dependent protein deacetylase sirtuin-2 (Homo sapiens) (UniProt Q8IXJ6); test: Inhibition of GST-tagged human recombinant SIRT2 (34 to 356 residues) expressed in Escherichia coli BL21 at 50 uM using Fluor de Lys-SIRT as substrate incubated for 60 mins prior to substrate addition measured after 45 mins by fluorimetric analysis
T1 sequence (whole entry): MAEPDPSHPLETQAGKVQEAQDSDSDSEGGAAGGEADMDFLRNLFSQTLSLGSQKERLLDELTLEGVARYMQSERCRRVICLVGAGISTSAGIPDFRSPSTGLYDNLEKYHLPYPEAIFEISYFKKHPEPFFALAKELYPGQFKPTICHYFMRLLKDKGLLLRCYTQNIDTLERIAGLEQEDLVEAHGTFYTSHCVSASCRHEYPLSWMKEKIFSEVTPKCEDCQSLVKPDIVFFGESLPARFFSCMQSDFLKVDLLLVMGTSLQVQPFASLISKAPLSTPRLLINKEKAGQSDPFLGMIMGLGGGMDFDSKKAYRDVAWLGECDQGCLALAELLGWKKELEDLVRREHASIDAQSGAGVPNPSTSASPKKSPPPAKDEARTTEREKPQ

[2] = biological target: T1, NAD-dependent protein deacetylase sirtuin-2 (Homo sapiens); test: Inhibition of GST-tagged human recombinant SIRT2 (34 to 356 residues) expressed in Escherichia coli BL21 at 10 uM using Fluor de Lys-SIRT as substrate incubated for 60 mins prior to substrate addition measured after 45 mins by fluorimetric analysis
[3] = biological target: T2, NAD-dependent protein deacetylase sirtuin-2 (Homo sapiens, UniProt Q8IXJ6); test: Inhibition of GST-tagged human recombinant SIRT2 (34 to 356 residues) expressed in Escherichia coli BL21 using Fluor de Lys-SIRT as substrate incubated for 60 mins prior to substrate addition measured after 45 mins by fluorimetric analysis
T2 sequence (Q8IXJ6 whole entry): T1 sequence (whole entry)

[4] = biological target: T1, NAD-dependent protein deacetylase sirtuin-2 (Homo sapiens); conditions: 25 uM
Description: Inhibition of human recombinant SIRT2 at 25 uM

[5] = biological target: T3, NAD-dependent protein deacetylase sirtuin-3, mitochondrial (Homo sapiens, UniProt Q9NTG7); test: Inhibition of human recombinant SIRT3 using Fluor de Lys-SIRT as substrate incubated for 60 mins prior to substrate addition measured after 45 mins by fluorimetric analysis
T3 sequence (Q9NTG7 whole entry): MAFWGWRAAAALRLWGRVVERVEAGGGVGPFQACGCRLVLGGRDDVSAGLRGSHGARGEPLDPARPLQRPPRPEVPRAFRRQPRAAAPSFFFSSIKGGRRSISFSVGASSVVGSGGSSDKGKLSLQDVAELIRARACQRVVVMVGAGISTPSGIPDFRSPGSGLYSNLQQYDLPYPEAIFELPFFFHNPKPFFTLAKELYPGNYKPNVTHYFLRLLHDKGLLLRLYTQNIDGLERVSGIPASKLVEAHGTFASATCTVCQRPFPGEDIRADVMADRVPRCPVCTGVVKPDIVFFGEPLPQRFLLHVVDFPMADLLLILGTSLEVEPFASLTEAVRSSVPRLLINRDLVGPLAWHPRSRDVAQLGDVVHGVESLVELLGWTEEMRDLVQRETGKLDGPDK

[6] = biological target: T4, NAD-dependent protein deacetylase sirtuin-1 (Homo sapiens, UniProt Q96EB6); test: Inhibition of human recombinant SIRT1 using Fluor de Lys-SIRT as substrate incubated for 60 mins prior to substrate addition measured after 45 mins by fluorimetric analysis
T4 sequence (Q96EB6 whole entry): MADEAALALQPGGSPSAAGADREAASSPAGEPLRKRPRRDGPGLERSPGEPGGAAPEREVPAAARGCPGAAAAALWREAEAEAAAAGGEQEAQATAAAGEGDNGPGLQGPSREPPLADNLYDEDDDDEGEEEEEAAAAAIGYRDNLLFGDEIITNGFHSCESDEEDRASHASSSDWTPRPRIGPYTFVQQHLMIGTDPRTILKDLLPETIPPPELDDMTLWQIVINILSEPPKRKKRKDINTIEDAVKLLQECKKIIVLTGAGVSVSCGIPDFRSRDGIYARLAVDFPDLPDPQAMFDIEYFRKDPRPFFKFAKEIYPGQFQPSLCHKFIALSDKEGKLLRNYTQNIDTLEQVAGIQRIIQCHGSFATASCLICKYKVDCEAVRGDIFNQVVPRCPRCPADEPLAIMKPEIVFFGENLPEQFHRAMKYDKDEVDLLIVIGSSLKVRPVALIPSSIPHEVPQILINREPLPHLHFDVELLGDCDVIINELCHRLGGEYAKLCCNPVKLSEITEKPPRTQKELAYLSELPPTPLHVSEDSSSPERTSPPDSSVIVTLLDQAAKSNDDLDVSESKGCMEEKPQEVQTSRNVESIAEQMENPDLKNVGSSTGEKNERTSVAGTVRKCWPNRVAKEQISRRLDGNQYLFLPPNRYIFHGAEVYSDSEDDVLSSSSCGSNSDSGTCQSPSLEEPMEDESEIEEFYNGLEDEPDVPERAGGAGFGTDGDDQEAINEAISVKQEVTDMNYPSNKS

[7] = biological target: T3, NAD-dependent protein deacetylase sirtuin-3, mitochondrial; test: Inhibition of human SIRT3
[8] = biological target: T4, NAD-dependent protein deacetylase sirtuin-1; test: Inhibition of human SIRT1

Row | SMILES | inhibition [1] [%] | inhibition [2] [%] | pIC50 [3] | further results
1 | O=C(Nc1cccc(NC(=O)c2cccc(Br)c2)c1)c1cccc(Br)c1 | 12 | 7 | – | –
2 | O=C(Nc1ccnnc1)c1cccc(-c2ccc3ccccc3c2)c1 | – | – | 5.20 | –
3 | O=C(Nc1cccc(NC(=O)c2ccccc2Br)c1)c1ccccc1Br | 49 | 3 | – | –
4 | COc1ccccc1C(=O)Nc1cccc(NC(=O)c2cccc(Br)c2)c1 | 39 | 11 | – | –
5 | COc1cccc(NC(=O)c2cccc(-c3ccc4ccccc4c3)c2)c1 | 66 | 29 | – | –
6 | O=C(Nc1cccnn1)c1cccc(-c2ccc3ccccc3c2)c1 | – | – | 6.05 | –
7 | O=C(Nc1cccc(NC(=O)c2ccccc2)c1)c1ccccc1 | 10 | 3 | – | –
8 | O=C(Nc1ccncc1)c1cccc(-c2ccc3ccccc3c2)c1 | – | – | 4.80 | –
9 | O=C(Nc1nccs1)c1cccc(-c2ccc3ccccc3c2)c1 | – | – | 4.92 | –
10 | COc1ccc(C(=O)Nc2cccc(NC(=O)c3ccccc3Br)c2)cc1 | 31 | 10 | – | –
11 | CC(C(=O)Nc1cccc(/N=C/c2c(O)ccc3ccccc23)c1)c1ccccc1 (centres undefined) | – | – | – | inhibition [4]: 80%
12 | O=C(Nc1cnccc1Br)c1cccc(-c2ccc3ccccc3c2)c1 | – | – | 6.22 | pIC50 [5]: < 4.00; pIC50 [6]: < 4.00
13 | COc1cccc(C(=O)Nc2cccc(NC(=O)c3ccccc3Br)c2)c1 | 19 | 4 | – | –
14 | O=C(Nc1ccccc1)c1cccc(-c2ccc3ccccc3c2)c1 | 14 | 21 | – | –
15 | Nc1ccccc1NC(=O)c1cccc(-c2ccc3ccccc3c2)c1 | 29 | 22 | – | –
16 | COc1ccccc1NC(=O)c1cccc(-c2ccc3ccccc3c2)c1 | 89 | 51 | 4.96 | –
17 | COc1cccc(C(=O)Nc2cccc(-c3ccc4ccccc4c3)c2)c1 | 44 | 8 | – | –
18 | O=C(Nc1ccccc1[N+](=O)[O-])c1cccc(-c2ccc3ccccc3c2)c1 | 76 | 30 | – | –
19 | O=C(Nc1cccc(-c2ccc3ccccc3c2)c1)c1ccccc1Br | 56 | 39 | – | –
20 | O=C(Nc1ccccc1Br)c1cccc(-c2ccc3ccccc3c2)c1 | 95 | 64 | 5.28 | –

Row | SMILES | inhibition [1] [%] | inhibition [2] [%] | pIC50 [3] | further results
21 | O=C(Nc1cccnc1)c1cccc(-c2ccc3ccccc3c2)c1 | – | – | 5.48 | –
22 | O=C(Nc1cccc(-c2ccc3ccccc3c2)c1)c1cccc(Br)c1 | 43 | 19 | – | –
23 | O=C(Nc1nc[nH]n1)c1cccc(-c2ccc3ccccc3c2)c1 | – | – | 4.24 | –
24 | O=C(Nc1cccc(NC(=O)c2ccccc2Br)c1)c1cccc(Br)c1 | 19 | 0 | – | –
25 | O=C(Nc1cccc(NC(=O)c2ccccc2Br)c1)c1ccccc1 | 28 | 8 | – | –
26 | O=C(Nc1cccc(NC(=O)c2cc(C(F)(F)F)cc(C(F)(F)F)c2)c1)c1cccc(Br)c1 | 12 | 3 | – | –
27 | COc1ccccc1C(=O)Nc1cccc(NC(=O)c2ccccc2Br)c1 | 28 | 10 | – | –
28 | Cc1ccccc1C(=O)Nc1cccc(NC(=O)c2ccccc2Br)c1 | 0 | 1 | – | –
29 | Cc1cccc(C(=O)Nc2cccc(NC(=O)c3ccccc3Br)c2)c1 | 24 | 18 | – | –
30 | O=C(Nc1cccc(Br)c1)c1cccc(S(=O)(=O)N2CCCCCC2)c1 | – | – | – | pIC50 [7]: < 4.30; pIC50 [8]: < 4.30
31 | O=C(Nc1ncccn1)c1cccc(-c2ccc3ccccc3c2)c1 | – | – | 4.89 | –
32 | O=C(Nc1cnccn1)c1cccc(-c2ccc3ccccc3c2)c1 | – | – | 5.21 | –
33 | O=C(Nc1ccccn1)c1cccc(-c2ccc3ccccc3c2)c1 | – | – | 4.66 | –
34 | O=C(Nc1cc[nH]n1)c1cccc(-c2ccc3ccccc3c2)c1 | – | – | 4.38 | –
35 | O=C(Nc1cccc(Br)c1)c1cccc(-c2ccc3ccccc3c2)c1 | 46 | 23 | – | –
36 | O=C(Nc1cccc(NC(=O)c2cccc(Br)c2)c1)c1cc(Cl)cc(Cl)c1 | 10 | 0 | – | –
37 | COc1ccc(C(=O)Nc2cccc(NC(=O)c3cccc(Br)c3)c2)cc1 | 0 | 4 | – | –
38 | N#C/C(=C\c1ccc(-c2cc(Cl)ccc2Cl)o1)C(=O)Nc1cccc2ncccc12 | – | – | – | pIC50 [8]: < 4.30
39 | COc1ccccc1C(=O)Nc1cccc(-c2ccc3ccccc3c2)c1 | 47 | 10 | – | –

From ChEMBL document CHEMBL3352569, “Design, synthesis and structure-activity relationship studies of novel sirtuin 2 (SIRT2) inhibitors with a benzamide skeleton” (Bioorg Med Chem, 2015)
